Laboratory results as given in PubChem BioAssay (NCI).
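Where inhibition never reached the appropriate level, the endpoint shown equals the highest concentration tested. Otherwise, values were interpolated linearly from a five-concentration, 48-hour dose response in 96-well plates. Here, GI50 denotes the concentration required for 50% inhibition of growth. At the TGI there is no net growth.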

Test system: SF-268 CNS
Experiment: NCI-60 cell line screen, 48 h

`CCN(CC)CCOc1ccc(/C(=C(\C)c2ccc(F)c(OC)c2)c2ccc(Cl)cc2)cc1` was tested. Which GI50 did it give?
Its GI50 is 2.69 µM.

And the TGI?
Its TGI is 5.82 µM.

Which results are given for `Cc1[nH]n(-c2cccc(Cl)c2)c(=O)c1/C=C1\C=Nc2ccc(Br)cc21`?
GI50: 5.49 µM; TGI: 26.4 µM

For `COC(COC(=O)N1CCN(C=O)CC1)C1=C(N2CC2)C(=O)C(C)=C(N2CC2)C1=O` (stereo not given), which TGI is on record?
The TGI was 6.45 µM.

Test system: OVCAR-8 ovarian
Experiment: NCI-60 cell line screen, 48 h

How did the GI50 turn out when `CCN(CC)CCOc1ccc(/C(=C(\C)c2ccc(F)c(OC)c2)c2ccc(Cl)cc2)cc1` was run?
The GI50 was 2.58 µM.

And the TGI?
Its TGI is 5.37 µM.

With `Cc1[nH]n(-c2cccc(Cl)c2)c(=O)c1/C=C1\C=Nc2ccc(Br)cc21` as the molecule, how does the GI50 read?
Its GI50 is 3.52 µM.

And the TGI?
The TGI was 13.8 µM.

`COC(COC(=O)N1CCN(C=O)CC1)C1=C(N2CC2)C(=O)C(C)=C(N2CC2)C1=O` (stereo not given) was tested. Which TGI did it give?
Its TGI is 1.36 µM.

Which GI50 does the source give for `O=C(CCCN1CC=C(n2c(=O)[nH]c3ccccc32)CC1)c1ccc(F)cc1` here?
The GI50 was 32.9 µM.

What about the TGI of the same molecule?
The TGI was greater than 100 µM.

Test system: SK-OV-3 ovarian
Experiment: NCI-60 cell line screen, 48 h

Which results are given for `CCN(CC)CCOc1ccc(/C(=C(\C)c2ccc(F)c(OC)c2)c2ccc(Cl)cc2)cc1`?
GI50: 2.97 µM; TGI: 5.73 µM

`Cc1[nH]n(-c2cccc(Cl)c2)c(=O)c1/C=C1\C=Nc2ccc(Br)cc21` was tested. Which GI50 did it give?
Its GI50 is 2.22 µM.

What about the TGI of the same molecule?
Its TGI is 4.53 µM.

Which TGI does the source give for `COC(COC(=O)N1CCN(C=O)CC1)C1=C(N2CC2)C(=O)C(C)=C(N2CC2)C1=O` (stereo not given) here?
Its TGI is 2.11 µM.

`O=C(CCCN1CC=C(n2c(=O)[nH]c3ccccc32)CC1)c1ccc(F)cc1` was tested. Which GI50 did it give?
Its GI50 is greater than 100 µM.

What about the TGI of the same molecule?
The TGI was greater than 100 µM.

Test system: HCC-2998 colon
Experiment: NCI-60 cell line screen, 48 h

What does the source list for `CCN(CC)CCOc1ccc(/C(=C(\C)c2ccc(F)c(OC)c2)c2ccc(Cl)cc2)cc1`?
GI50: 2.17 µM; TGI: 4.36 µM

`Cc1[nH]n(-c2cccc(Cl)c2)c(=O)c1/C=C1\C=Nc2ccc(Br)cc21` was tested. Which GI50 did it give?
Its GI50 is 14.3 µM.

What about the TGI of the same molecule?
Its TGI is greater than 100 µM.

With `COC(COC(=O)N1CCN(C=O)CC1)C1=C(N2CC2)C(=O)C(C)=C(N2CC2)C1=O` (stereo not given) as the molecule, how does the TGI read?
The TGI was 38.1 µM.

`O=C(CCCN1CC=C(n2c(=O)[nH]c3ccccc32)CC1)c1ccc(F)cc1` was tested. Which GI50 did it give?
The GI50 was 48 µM.

What about the TGI of the same molecule?
The TGI was greater than 100 µM.

Test system: RPMI-8226 leukemia
Experiment: NCI-60 cell line screen, 48 h

With `CCN(CC)CCOc1ccc(/C(=C(\C)c2ccc(F)c(OC)c2)c2ccc(Cl)cc2)cc1` as the molecule, how does the GI50 read?
Its GI50 is 2.6 µM.

What about the TGI of the same molecule?
Its TGI is 6.3 µM.

What does the source list for `Cc1[nH]n(-c2cccc(Cl)c2)c(=O)c1/C=C1\C=Nc2ccc(Br)cc21`?
GI50: 3.08 µM; TGI: 22.6 µM

`COC(COC(=O)N1CCN(C=O)CC1)C1=C(N2CC2)C(=O)C(C)=C(N2CC2)C1=O` (stereo not given) was tested. Which TGI did it give?
Its TGI is 1.52 µM.

With `O=C(CCCN1CC=C(n2c(=O)[nH]c3ccccc32)CC1)c1ccc(F)cc1` as the molecule, how does the GI50 read?
Its GI50 is 30.4 µM.

And the TGI?
Its TGI is greater than 100 µM.

Test system: MDA-MB-435
Experiment: NCI-60 cell line screen, 48 h

For `CCN(CC)CCOc1ccc(/C(=C(\C)c2ccc(F)c(OC)c2)c2ccc(Cl)cc2)cc1`, which GI50 is on record?
The GI50 was 2.43 µM.

What about the TGI of the same molecule?
The TGI was 4.61 µM.

With `Cc1[nH]n(-c2cccc(Cl)c2)c(=O)c1/C=C1\C=Nc2ccc(Br)cc21` as the molecule, how does the GI50 read?
Its GI50 is 6.78 µM.

What about the TGI of the same molecule?
Its TGI is greater than 100 µM.

For `COC(COC(=O)N1CCN(C=O)CC1)C1=C(N2CC2)C(=O)C(C)=C(N2CC2)C1=O` (stereo not given), which TGI is on record?
Its TGI is 0.976 µM.

Which GI50 does the source give for `O=C(CCCN1CC=C(n2c(=O)[nH]c3ccccc32)CC1)c1ccc(F)cc1` here?
The GI50 was 18.1 µM.

What about the TGI of the same molecule?
The TGI was 49.5 µM.

Test system: MDA-MB-231 breast
Experiment: NCI-60 cell line screen, 48 h

How did the GI50 turn out when `CCN(CC)CCOc1ccc(/C(=C(\C)c2ccc(F)c(OC)c2)c2ccc(Cl)cc2)cc1` was run?
The GI50 was 2.54 µM.

And the TGI?
Its TGI is 4.8 µM.

`Cc1[nH]n(-c2cccc(Cl)c2)c(=O)c1/C=C1\C=Nc2ccc(Br)cc21` was tested. Which GI50 did it give?
Its GI50 is 3.4 µM.

What about the TGI of the same molecule?
Its TGI is 15.3 µM.

With `COC(COC(=O)N1CCN(C=O)CC1)C1=C(N2CC2)C(=O)C(C)=C(N2CC2)C1=O` (stereo not given) as the molecule, how does the TGI read?
Its TGI is 8.16 µM.

What does the source list for `O=C(CCCN1CC=C(n2c(=O)[nH]c3ccccc32)CC1)c1ccc(F)cc1`?
GI50: 62.8 µM; TGI: > 100 µM

Test system: NCI-H23 lung
Experiment: NCI-60 cell line screen, 48 h

`CCN(CC)CCOc1ccc(/C(=C(\C)c2ccc(F)c(OC)c2)c2ccc(Cl)cc2)cc1` was tested. Which GI50 did it give?
The GI50 was 2.39 µM.

And the TGI?
The TGI was 4.97 µM.

With `Cc1[nH]n(-c2cccc(Cl)c2)c(=O)c1/C=C1\C=Nc2ccc(Br)cc21` as the molecule, how does the GI50 read?
The GI50 was 6.65 µM.

And the TGI?
Its TGI is 26.4 µM.

`COC(COC(=O)N1CCN(C=O)CC1)C1=C(N2CC2)C(=O)C(C)=C(N2CC2)C1=O` (stereo not given) was tested. Which TGI did it give?
Its TGI is 0.926 µM.

Which GI50 does the source give for `O=C(CCCN1CC=C(n2c(=O)[nH]c3ccccc32)CC1)c1ccc(F)cc1` here?
The GI50 was 37.6 µM.

And the TGI?
The TGI was greater than 100 µM.

Test system: PC-3 prostate
Experiment: NCI-60 cell line screen, 48 h

Which GI50 does the source give for `CCN(CC)CCOc1ccc(/C(=C(\C)c2ccc(F)c(OC)c2)c2ccc(Cl)cc2)cc1` here?
The GI50 was 2.11 µM.

And the TGI?
The TGI was 4.62 µM.

With `Cc1[nH]n(-c2cccc(Cl)c2)c(=O)c1/C=C1\C=Nc2ccc(Br)cc21` as the molecule, how does the GI50 read?
The GI50 was 3.64 µM.

What about the TGI of the same molecule?
Its TGI is 22.3 µM.

How did the TGI turn out when `COC(COC(=O)N1CCN(C=O)CC1)C1=C(N2CC2)C(=O)C(C)=C(N2CC2)C1=O` (stereo not given) was run?
Its TGI is 3.24 µM.

How did the GI50 turn out when `O=C(CCCN1CC=C(n2c(=O)[nH]c3ccccc32)CC1)c1ccc(F)cc1` was run?
The GI50 was 29 µM.

And the TGI?
Its TGI is greater than 100 µM.

Test system: BT-549 breast
Experiment: NCI-60 cell line screen, 48 h

`CCN(CC)CCOc1ccc(/C(=C(\C)c2ccc(F)c(OC)c2)c2ccc(Cl)cc2)cc1` was tested. Which GI50 did it give?
Its GI50 is 2.67 µM.

And the TGI?
Its TGI is 5.13 µM.

Which GI50 does the source give for `Cc1[nH]n(-c2cccc(Cl)c2)c(=O)c1/C=C1\C=Nc2ccc(Br)cc21` here?
The GI50 was 7.89 µM.

What about the TGI of the same molecule?
Its TGI is 30 µM.

How did the TGI turn out when `COC(COC(=O)N1CCN(C=O)CC1)C1=C(N2CC2)C(=O)C(C)=C(N2CC2)C1=O` (stereo not given) was run?
Its TGI is 1.97 µM.

What does the source list for `O=C(CCCN1CC=C(n2c(=O)[nH]c3ccccc32)CC1)c1ccc(F)cc1`?
GI50: 24.9 µM; TGI: 86.8 µM

Test system: RXF 393 renal
Experiment: NCI-60 cell line screen, 48 h

Which GI50 does the source give for `CCN(CC)CCOc1ccc(/C(=C(\C)c2ccc(F)c(OC)c2)c2ccc(Cl)cc2)cc1` here?
Its GI50 is 2.18 µM.

And the TGI?
The TGI was 4.36 µM.

What does the source list for `Cc1[nH]n(-c2cccc(Cl)c2)c(=O)c1/C=C1\C=Nc2ccc(Br)cc21`?
GI50: 1.86 µM; TGI: 4.01 µM

With `COC(COC(=O)N1CCN(C=O)CC1)C1=C(N2CC2)C(=O)C(C)=C(N2CC2)C1=O` (stereo not given) as the molecule, how does the TGI read?
The TGI was 0.815 µM.

How did the GI50 turn out when `O=C(CCCN1CC=C(n2c(=O)[nH]c3ccccc32)CC1)c1ccc(F)cc1` was run?
The GI50 was 19 µM.

And the TGI?
Its TGI is greater than 100 µM.

Test system: SK-MEL-2 melanoma
Experiment: NCI-60 cell line screen, 48 h

Which results are given for `CCN(CC)CCOc1ccc(/C(=C(\C)c2ccc(F)c(OC)c2)c2ccc(Cl)cc2)cc1`?
GI50: 2.8 µM; TGI: 5.51 µM

With `Cc1[nH]n(-c2cccc(Cl)c2)c(=O)c1/C=C1\C=Nc2ccc(Br)cc21` as the molecule, how does the GI50 read?
Its GI50 is 10.5 µM.

What about the TGI of the same molecule?
The TGI was 24.6 µM.

Which results are given for `O=C(CCCN1CC=C(n2c(=O)[nH]c3ccccc32)CC1)c1ccc(F)cc1`?
GI50: 19.5 µM; TGI: 70.9 µM

Test system: CAKI-1 renal
Experiment: NCI-60 cell line screen, 48 h

`CCN(CC)CCOc1ccc(/C(=C(\C)c2ccc(F)c(OC)c2)c2ccc(Cl)cc2)cc1` was tested. Which GI50 did it give?
The GI50 was 2.42 µM.

And the TGI?
Its TGI is 4.61 µM.

Which GI50 does the source give for `Cc1[nH]n(-c2cccc(Cl)c2)c(=O)c1/C=C1\C=Nc2ccc(Br)cc21` here?
Its GI50 is 2.43 µM.

What about the TGI of the same molecule?
The TGI was 13.5 µM.

For `COC(COC(=O)N1CCN(C=O)CC1)C1=C(N2CC2)C(=O)C(C)=C(N2CC2)C1=O` (stereo not given), which TGI is on record?
The TGI was 3.6 µM.

Which results are given for `O=C(CCCN1CC=C(n2c(=O)[nH]c3ccccc32)CC1)c1ccc(F)cc1`?
GI50: 21.7 µM; TGI: 72.5 µM

Test system: OVCAR-5 ovarian
Experiment: NCI-60 cell line screen, 48 h

For `CCN(CC)CCOc1ccc(/C(=C(\C)c2ccc(F)c(OC)c2)c2ccc(Cl)cc2)cc1`, which GI50 is on record?
The GI50 was 2.4 µM.

What about the TGI of the same molecule?
Its TGI is 4.83 µM.

With `Cc1[nH]n(-c2cccc(Cl)c2)c(=O)c1/C=C1\C=Nc2ccc(Br)cc21` as the molecule, how does the GI50 read?
Its GI50 is 3.1 µM.

And the TGI?
Its TGI is 10.2 µM.

With `COC(COC(=O)N1CCN(C=O)CC1)C1=C(N2CC2)C(=O)C(C)=C(N2CC2)C1=O` (stereo not given) as the molecule, how does the TGI read?
The TGI was 8.64 µM.

For `O=C(CCCN1CC=C(n2c(=O)[nH]c3ccccc32)CC1)c1ccc(F)cc1`, which GI50 is on record?
Its GI50 is 94.1 µM.

What about the TGI of the same molecule?
The TGI was greater than 100 µM.
